Laboratory results as given in ChEMBL document CHEMBL4507319 (2021).

What was measured:
[1] = biological target: Death-associated protein kinase 1 (Homo sapiens) (UniProt P53355); settings: Compound concentration 1000.0 nM
[2] = tested on: Mast/stem cell growth factor receptor Kit (Homo sapiens), P10721 [D816V]; settings: Compound concentration 1000.0 nM
[3] = biological target: Serine/threonine-protein kinase 32A (Homo sapiens) (UniProt Q8WU08); settings: Compound concentration 1000.0 nM
[4] = biological target: Serine/threonine-protein kinase 25 (Homo sapiens) (UniProt O00506); settings: Compound concentration 1000.0 nM
[5] = biological target: Sigma intracellular receptor 2 (Homo sapiens, UniProt Q5BJF2); assay: GPCRScan assay: inhibition of Sigma 2; set-up: radioligand conc. used [nm] 5.0, parental cells HEKT
Sequence of Sigma intracellular receptor 2 (Q5BJF2 whole entry): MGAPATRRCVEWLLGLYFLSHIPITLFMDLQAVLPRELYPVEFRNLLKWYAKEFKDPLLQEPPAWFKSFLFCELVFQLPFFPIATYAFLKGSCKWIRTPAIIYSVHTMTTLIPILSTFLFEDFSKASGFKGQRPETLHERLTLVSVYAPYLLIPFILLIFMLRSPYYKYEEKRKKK

[6] = biological target: Platelet-derived growth factor receptor beta (Homo sapiens) (UniProt P09619); settings: Compound concentration 1000.0 nM
[7] = biological target: Serine/threonine-protein kinase 38-like (Homo sapiens) (UniProt Q9Y2H1); settings: Compound concentration 1000.0 nM
[8] = biological target: Serine/threonine-protein kinase SIK1 (Homo sapiens) (UniProt P57059); settings: Compound concentration 1000.0 nM
[9] = biological target: Mitogen-activated protein kinase kinase kinase 20 (Homo sapiens) (UniProt Q9NYL2); settings: Compound concentration 1000.0 nM
[10] = biological target: Calcium/calmodulin-dependent protein kinase type II subunit alpha (Homo sapiens) (UniProt Q9UQM7); settings: Compound concentration 1000.0 nM
Sequence of Calcium/calmodulin-dependent protein kinase type II subunit alpha (Homo sapiens) (Q9UQM7 whole entry): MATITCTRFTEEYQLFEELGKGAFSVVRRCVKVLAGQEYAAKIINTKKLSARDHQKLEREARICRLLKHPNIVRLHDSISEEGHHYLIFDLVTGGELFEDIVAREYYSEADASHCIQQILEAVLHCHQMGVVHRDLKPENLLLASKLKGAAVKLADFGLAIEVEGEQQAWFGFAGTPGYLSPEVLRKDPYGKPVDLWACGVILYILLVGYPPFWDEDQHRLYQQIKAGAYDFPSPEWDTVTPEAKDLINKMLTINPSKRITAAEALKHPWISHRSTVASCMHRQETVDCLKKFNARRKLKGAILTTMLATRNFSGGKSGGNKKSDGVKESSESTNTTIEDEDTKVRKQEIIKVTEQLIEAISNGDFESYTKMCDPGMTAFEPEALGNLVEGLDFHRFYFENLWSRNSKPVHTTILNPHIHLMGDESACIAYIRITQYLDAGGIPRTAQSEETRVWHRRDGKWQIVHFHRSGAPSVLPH

[11] = biological target: Calcium/calmodulin-dependent protein kinase type II subunit gamma (Homo sapiens) (UniProt Q13555); settings: Compound concentration 1000.0 nM
[12] = biological target: T1, G protein-coupled receptor kinase 3 (Homo sapiens) (UniProt P35626); settings: Compound concentration 1000.0 nM
T1 sequence (whole entry): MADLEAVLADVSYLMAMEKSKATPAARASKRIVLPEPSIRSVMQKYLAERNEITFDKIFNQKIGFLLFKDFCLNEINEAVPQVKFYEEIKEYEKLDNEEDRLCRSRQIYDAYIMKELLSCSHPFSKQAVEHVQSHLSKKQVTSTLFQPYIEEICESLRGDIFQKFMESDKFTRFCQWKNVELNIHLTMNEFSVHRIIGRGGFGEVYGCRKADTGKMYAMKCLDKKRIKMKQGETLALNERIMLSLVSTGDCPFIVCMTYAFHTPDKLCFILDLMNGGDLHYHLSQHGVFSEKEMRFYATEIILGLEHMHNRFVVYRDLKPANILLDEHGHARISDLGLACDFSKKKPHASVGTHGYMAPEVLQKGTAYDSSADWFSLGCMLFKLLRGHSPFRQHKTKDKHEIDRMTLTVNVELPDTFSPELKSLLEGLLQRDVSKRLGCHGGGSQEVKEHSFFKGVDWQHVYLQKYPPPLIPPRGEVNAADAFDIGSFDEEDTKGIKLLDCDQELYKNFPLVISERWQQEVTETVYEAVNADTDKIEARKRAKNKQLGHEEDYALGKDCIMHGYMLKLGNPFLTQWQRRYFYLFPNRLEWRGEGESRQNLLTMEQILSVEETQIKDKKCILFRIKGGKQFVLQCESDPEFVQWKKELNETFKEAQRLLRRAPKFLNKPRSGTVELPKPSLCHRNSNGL

[13] = biological target: Serine/threonine-protein kinase WNK4 (Homo sapiens) (UniProt Q96J92); settings: Compound concentration 1000.0 nM
[14] = biological target: Phosphatidylinositol 5-phosphate 4-kinase type-2 gamma (Homo sapiens) (UniProt Q8TBX8); settings: Compound concentration 1000.0 nM
[15] = biological target: T2, Ribosomal protein S6 kinase alpha-3 (Homo sapiens, UniProt P51812); settings: Compound concentration 1000.0 nM
T2 sequence (P51812 whole entry): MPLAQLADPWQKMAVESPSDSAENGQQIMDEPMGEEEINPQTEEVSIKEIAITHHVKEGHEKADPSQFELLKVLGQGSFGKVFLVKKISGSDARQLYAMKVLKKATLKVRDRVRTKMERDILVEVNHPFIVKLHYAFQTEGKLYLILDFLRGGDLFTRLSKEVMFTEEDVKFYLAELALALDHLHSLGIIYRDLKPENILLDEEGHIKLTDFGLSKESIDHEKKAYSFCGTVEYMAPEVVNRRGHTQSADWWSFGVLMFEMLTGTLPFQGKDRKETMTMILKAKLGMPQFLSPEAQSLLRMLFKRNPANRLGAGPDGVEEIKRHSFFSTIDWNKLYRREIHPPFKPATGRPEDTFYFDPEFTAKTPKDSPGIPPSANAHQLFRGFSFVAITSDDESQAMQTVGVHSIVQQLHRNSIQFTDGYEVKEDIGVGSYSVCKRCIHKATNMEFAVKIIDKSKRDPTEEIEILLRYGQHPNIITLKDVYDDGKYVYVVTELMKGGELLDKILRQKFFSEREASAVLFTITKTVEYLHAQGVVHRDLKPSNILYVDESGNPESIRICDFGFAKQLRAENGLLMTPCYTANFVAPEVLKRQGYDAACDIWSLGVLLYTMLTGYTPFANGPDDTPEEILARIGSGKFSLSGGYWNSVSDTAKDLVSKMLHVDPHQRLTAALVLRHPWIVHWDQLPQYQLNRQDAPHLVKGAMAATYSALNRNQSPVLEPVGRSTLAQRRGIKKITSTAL

[16] = biological target: Serine/threonine-protein kinase PLK2 (Homo sapiens) (UniProt Q9NYY3); settings: Compound concentration 1000.0 nM
Sequence of Serine/threonine-protein kinase PLK2 (Homo sapiens) (Q9NYY3 whole entry, looked up): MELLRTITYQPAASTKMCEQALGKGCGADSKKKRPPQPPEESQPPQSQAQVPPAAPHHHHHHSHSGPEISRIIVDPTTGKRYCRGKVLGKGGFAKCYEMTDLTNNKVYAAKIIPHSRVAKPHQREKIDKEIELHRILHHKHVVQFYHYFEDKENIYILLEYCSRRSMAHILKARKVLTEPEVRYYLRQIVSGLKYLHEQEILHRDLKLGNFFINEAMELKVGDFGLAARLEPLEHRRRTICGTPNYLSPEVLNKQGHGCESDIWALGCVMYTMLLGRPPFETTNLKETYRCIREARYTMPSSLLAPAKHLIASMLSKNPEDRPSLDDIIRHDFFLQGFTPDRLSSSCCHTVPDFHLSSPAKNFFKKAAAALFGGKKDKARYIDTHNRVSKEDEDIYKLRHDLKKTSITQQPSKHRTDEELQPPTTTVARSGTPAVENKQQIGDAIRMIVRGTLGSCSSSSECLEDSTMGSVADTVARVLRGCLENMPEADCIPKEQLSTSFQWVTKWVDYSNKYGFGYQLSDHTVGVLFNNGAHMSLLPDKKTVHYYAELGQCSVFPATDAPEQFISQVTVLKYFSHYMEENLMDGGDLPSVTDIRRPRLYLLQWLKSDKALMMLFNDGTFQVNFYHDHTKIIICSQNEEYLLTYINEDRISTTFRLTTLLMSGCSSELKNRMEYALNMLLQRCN

[17] = biological target: T3, MAP/microtubule affinity-regulating kinase 4 (Homo sapiens) (UniProt Q96L34); settings: Compound concentration 1000.0 nM
T3 sequence (whole entry): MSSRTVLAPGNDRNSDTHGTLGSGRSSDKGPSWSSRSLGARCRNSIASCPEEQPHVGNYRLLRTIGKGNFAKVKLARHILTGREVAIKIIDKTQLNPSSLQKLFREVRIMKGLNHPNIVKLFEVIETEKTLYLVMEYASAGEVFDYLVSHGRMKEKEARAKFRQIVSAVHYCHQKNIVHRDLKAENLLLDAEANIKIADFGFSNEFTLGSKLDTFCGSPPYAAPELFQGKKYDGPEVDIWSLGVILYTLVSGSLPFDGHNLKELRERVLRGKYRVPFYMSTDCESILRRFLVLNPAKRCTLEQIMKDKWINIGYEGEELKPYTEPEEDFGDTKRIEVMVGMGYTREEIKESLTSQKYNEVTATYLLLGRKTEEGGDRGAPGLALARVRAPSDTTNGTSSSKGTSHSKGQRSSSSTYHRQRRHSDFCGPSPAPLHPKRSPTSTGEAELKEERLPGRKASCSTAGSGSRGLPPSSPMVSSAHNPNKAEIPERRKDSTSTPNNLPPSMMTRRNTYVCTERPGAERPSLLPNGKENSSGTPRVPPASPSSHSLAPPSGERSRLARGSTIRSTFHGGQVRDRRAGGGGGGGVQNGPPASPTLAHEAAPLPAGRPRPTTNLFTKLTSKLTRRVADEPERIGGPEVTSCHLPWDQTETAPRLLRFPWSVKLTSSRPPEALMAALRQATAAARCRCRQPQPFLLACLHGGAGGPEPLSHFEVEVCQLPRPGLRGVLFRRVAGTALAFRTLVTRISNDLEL

[18] = biological target: Proto-oncogene tyrosine-protein kinase Src (Homo sapiens) (UniProt P12931); settings: Compound concentration 1000.0 nM
[19] = biological target: T2, Ribosomal protein S6 kinase alpha-3; settings: Compound concentration 1000.0 nM; remark: listed apart in the source
[20] = biological target: Megakaryocyte-associated tyrosine-protein kinase (Homo sapiens) (UniProt P42679); settings: Compound concentration 1000.0 nM
[21] = biological target: 5-hydroxytryptamine receptor 2C (Homo sapiens) (UniProt P28335); settings: Compound concentration 10.0 uM
Sequence of 5-hydroxytryptamine receptor 2C (Homo sapiens) (P28335 whole entry): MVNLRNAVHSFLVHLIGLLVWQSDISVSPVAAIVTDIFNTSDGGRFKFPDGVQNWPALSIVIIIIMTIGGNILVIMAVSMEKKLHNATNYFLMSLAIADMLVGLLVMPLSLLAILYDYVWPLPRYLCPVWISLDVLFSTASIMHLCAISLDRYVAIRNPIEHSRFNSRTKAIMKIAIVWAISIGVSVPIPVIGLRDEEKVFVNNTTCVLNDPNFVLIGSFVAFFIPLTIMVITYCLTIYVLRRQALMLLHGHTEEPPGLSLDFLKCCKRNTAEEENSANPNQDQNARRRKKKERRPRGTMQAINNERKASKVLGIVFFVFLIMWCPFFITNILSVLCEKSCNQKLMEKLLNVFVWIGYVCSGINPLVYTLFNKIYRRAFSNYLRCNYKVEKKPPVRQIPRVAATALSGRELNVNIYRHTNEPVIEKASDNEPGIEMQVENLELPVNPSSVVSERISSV

[22] = biological target: Serine/threonine-protein kinase RIO1 (Homo sapiens) (UniProt Q9BRS2); settings: Compound concentration 1000.0 nM

Sequence of Mast/stem cell growth factor receptor Kit (Homo sapiens), P10721 [D816V] (P10721 whole entry D816V): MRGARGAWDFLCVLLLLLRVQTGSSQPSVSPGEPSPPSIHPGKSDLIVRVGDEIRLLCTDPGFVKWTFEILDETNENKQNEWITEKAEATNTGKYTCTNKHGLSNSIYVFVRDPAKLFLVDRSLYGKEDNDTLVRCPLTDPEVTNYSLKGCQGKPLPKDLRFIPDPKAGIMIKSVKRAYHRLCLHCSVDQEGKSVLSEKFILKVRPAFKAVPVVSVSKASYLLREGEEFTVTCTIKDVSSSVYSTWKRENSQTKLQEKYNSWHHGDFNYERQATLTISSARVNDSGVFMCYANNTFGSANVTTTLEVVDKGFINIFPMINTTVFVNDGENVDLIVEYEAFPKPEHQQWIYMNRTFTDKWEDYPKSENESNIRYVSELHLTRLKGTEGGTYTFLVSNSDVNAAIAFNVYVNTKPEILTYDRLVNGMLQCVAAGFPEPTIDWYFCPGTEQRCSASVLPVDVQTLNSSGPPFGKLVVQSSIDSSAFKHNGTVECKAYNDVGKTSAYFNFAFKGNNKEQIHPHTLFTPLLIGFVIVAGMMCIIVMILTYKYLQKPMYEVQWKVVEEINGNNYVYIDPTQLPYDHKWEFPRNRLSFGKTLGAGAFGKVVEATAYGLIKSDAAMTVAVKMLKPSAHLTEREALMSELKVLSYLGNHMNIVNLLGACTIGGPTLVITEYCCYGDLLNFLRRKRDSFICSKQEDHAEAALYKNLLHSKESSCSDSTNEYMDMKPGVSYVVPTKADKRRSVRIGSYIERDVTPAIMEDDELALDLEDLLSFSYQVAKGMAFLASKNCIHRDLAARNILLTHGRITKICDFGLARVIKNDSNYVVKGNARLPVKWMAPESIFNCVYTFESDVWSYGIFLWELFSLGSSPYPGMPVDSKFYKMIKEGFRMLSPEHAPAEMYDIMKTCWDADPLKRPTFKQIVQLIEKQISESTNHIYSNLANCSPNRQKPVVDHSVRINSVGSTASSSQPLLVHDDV
Sequence of Death-associated protein kinase 1 (Homo sapiens) (P53355 whole entry, looked up): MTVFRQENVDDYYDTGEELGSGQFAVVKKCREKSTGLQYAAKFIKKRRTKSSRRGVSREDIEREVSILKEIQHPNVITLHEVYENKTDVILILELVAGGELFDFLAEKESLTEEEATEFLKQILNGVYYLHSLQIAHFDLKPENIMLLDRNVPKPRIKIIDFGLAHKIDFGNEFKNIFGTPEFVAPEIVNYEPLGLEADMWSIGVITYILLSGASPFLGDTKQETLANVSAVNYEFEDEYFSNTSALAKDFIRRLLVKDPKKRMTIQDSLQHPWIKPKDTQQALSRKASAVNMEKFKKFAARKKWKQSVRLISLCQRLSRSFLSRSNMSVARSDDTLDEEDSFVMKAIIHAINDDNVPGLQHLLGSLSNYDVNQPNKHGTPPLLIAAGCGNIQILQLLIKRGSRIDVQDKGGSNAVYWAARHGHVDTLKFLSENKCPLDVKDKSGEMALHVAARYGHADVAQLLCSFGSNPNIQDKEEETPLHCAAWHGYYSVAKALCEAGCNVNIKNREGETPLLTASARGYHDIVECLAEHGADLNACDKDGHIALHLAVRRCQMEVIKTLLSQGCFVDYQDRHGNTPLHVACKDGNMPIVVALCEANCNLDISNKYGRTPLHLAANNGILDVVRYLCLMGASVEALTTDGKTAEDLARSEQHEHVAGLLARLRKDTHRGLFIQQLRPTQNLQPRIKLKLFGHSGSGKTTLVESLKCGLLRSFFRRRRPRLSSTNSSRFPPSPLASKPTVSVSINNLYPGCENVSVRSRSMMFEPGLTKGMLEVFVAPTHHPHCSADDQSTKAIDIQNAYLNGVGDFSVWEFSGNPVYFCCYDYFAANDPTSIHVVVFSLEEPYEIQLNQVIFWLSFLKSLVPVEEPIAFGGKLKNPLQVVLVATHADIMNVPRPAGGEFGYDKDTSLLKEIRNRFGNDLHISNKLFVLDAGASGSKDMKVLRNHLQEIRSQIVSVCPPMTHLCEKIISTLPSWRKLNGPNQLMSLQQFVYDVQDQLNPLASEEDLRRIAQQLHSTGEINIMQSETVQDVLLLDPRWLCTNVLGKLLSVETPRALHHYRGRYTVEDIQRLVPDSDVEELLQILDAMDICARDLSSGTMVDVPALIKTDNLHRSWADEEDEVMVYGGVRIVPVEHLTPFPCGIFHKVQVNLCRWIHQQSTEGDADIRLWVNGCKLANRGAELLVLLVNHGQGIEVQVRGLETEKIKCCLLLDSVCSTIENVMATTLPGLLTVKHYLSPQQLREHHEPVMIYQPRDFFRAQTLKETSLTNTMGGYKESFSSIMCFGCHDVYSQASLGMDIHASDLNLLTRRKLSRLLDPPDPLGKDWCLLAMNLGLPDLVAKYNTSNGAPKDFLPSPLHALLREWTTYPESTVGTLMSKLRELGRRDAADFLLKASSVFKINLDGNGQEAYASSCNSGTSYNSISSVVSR

| SMILES | residual activity [1] [%] | residual activity [2] [%] | residual activity [3] [%] | residual activity [4] [%] | Ki [5] [µM] | residual activity [6] [%] | residual activity [7] [%] | residual activity [8] [%] | residual activity [9] [%] | residual activity [10] [%] | residual activity [11] [%] | residual activity [12] [%] | residual activity [13] [%] | residual activity [14] [%] | residual activity [15] [%] | residual activity [16] [%] | residual activity [17] [%] | residual activity [18] [%] | residual activity [19] [%] | residual activity [20] [%] | other results |
| --- | --- | --- | --- | --- | --- | --- | --- | --- | --- | --- | --- | --- | --- | --- | --- | --- | --- | --- | --- | --- | --- |
| CCc1ccccc1C(=O)Nc1n[nH]c2c(C)c(F)c(C3C(C#N)=C(C)N(C)C(C)=C3C#N)cc12 [BAY-3827] | 100 | 55 | 100 | 80 | 2.84 | 82 | 82 | 66 | 90 | 47 | 79 | 100 | 94 | 77 | 0.3 | 97 | 51 | 94 | 100 | 100 | inhibition [21]: 20%; residual activity [22]: 82% |
| CC1=C(C#N)C(c2ccc3c(c2)c(NC(=O)c2ccccc2C)nn3C)C(C#N)=C(C)N1 [BAY-974] | 89 | 85 | 95 | 100 | 4.47 | 94 | 98 | 88 | 100 | 90 | 100 | 93 | 95 | 92 | 86 | 74 | 94 | 89 | 94 | 79 | inhibition [21]: 22.5%; residual activity [22]: 93% |
